Results on 7 molecules are retold here after paper PMC10185773, “Interactions of the protein tyrosine phosphatase PTPN3 with viral and cellular partners through its PDZ domain: insights into structural determinants and phosphatase activity” (Frontiers in Molecular Biosciences, 2023).

The target of assay [1] is HBc PBM (Hepatitis B virus) (UniProt P03149). The following applies: cited from earlier work.
The target in assay [2] is HPV16 E6 PBM (Human papillomavirus type 16) (UniProt P03126). The following applies: cited from earlier work.
The target in assay [3] is HPV18 E6 PBM (Human papillomavirus type 18) (UniProt P06463). Particulars: cited from earlier work.
Another assay addresses p38γ PBM (Homo sapiens) (UniProt P53778). Particulars: cited from earlier work.
For assay [4], the target named is biotinylated peptide PBM-p38γ (12-mer, holdup bait). In words: holdup assay; biotinylated PBM peptide on resin in 96-well plates; bacterial extracts with overexpressed MBP-PDZ domains incubated, filtered, flowthrough read by microfluidic capillary electrophoresis; binding intensity (BI), threshold 0.2.
The subject of assay [5] is PTPN4-PDZ. Particulars: holdup, biotinylated 12-mer peptide; threshold 0.2; ref Genera et al., 2021; cited from earlier work. An excerpt:
(§1) We generated a PDZome-binding profile of PBM-p38γ. Mean values of binding intensities (BI) ranked based on affinity are reported in Supplementary Material S1. The highest BI values indicate the PDZ domains recognized with the best affinities by the peptides used as bait. […] In recent work we established the PDZome-binding profile of PBM-HBc with 28 PDZ domains also identified as significant binders ([Genera et al., 2021]). Thus, this similar number of P ...

Assay [6] concerns library of human PDZ domains (266 PDZ domains, 97% of the human PDZome). Particulars: holdup against human PDZome; ref Genera et al., 2021; cited from earlier work.
Description: as §1

For assay [7], the target named is T1, PTPN3-PDZ (Homo sapiens, UniProt P26045).
T1 construct: GST (N, cleaved yes); made in house; host or cells: E. coli BL21 Star (DE3)
T1 sequence (P26045 510-582 limits assumed): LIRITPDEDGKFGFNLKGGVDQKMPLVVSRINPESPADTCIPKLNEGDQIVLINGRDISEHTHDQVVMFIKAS
The following applies: holdup, biotinylated 12-mer peptide; threshold 0.2; ref Genera et al., 2021; cited from earlier work.
Description: as §1

The target of a further assay is T2, PTPN3-Bidomain (Homo sapiens, UniProt P26045).
T2 construct: 6xHis (N); made in house; host or cells: E. coli BL21 Star (DE3)
T2 sequence (P26045 488-913): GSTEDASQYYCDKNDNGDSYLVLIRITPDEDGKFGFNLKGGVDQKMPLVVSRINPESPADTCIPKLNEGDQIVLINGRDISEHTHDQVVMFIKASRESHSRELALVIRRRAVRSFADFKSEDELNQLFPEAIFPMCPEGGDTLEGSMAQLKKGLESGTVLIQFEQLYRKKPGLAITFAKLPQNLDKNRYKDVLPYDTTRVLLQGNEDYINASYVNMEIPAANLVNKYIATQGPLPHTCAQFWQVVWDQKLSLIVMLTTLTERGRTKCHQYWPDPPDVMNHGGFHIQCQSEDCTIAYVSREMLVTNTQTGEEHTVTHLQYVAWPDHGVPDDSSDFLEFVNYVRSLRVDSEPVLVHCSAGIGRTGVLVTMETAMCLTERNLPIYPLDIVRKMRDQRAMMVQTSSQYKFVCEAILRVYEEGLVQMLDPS
In words: pNPP hydrolysis by PTPN3-Bidomain pre-incubated with PBM peptide. Format: biochemical. Particulars: Bidomain 75 nM + large excess of peptide (molar ratio 600:1, 30 min at 25°C), pNPP 19 µM-10 mM, pH 7.5, 25°C, A410, three independent experiments; for Km: substrate-inhibition Michaelis-Menten fit. The method, then: We performed enzymatic assays on the constructs PTPN3-Bidomain, PTPN3-linker-PTP, PTPN3-shLinker-PTP (short linker, missing 23 residues) and PTPN3-PDZ (Figure 1). In all experiments, the phosphatase activity was assessed using the synthetic nonspecific phosphatase substrate p-nitrophenyl phosphate (pNPP), whose hydrolysis into p-nitrophenol (pNP) can be followed spectrophotometrically at 410 nm. Reactions were performed in 50 mM Tris-HCl, pH 7.5, 1 mM MgCl2, 150 mM NaCl, 0.5 mM.
TCEP The initial reaction rates were measured independently at pH 7.5 and at 25°C. pNPP was assayed for concentrations ranging from 19 μM to 10 mM at an enzyme concentration of 75 nM. […] The experimental data was therefore fitted to a corrected Michaelis-Menten equation to take into consideration this inhibition.
The equation is: Vo = Vmax [S]/(Km + [S] + [S]2/Ki) with Vo the initial rate, Vmax the maximal rate, [S] the substrate concentration and Ki the inhibition constant.
Phosphatase activity was measured by following the hydrolysis of pNPP as previously described ([Maisonneuve et al., 2014]). Absorbances were measured continuously at 410 nm for pNP, using a Thermo Scientific UV spectrometer equilibrated at 25°C. Initial linear reaction rates were calculated during a 60 s reaction. The kcat and KM constants were deduced from fitting the Michaelis-Menten equation with the Prism software. The data are representative of three independent experiments.
A large excess (molar ratio 600:1) of each peptide was incubated with PTPN3-Bidomain for 30’ at 25°C, and the initial rates of the dephosphorylation reaction were measured in the same range of pNPP concentrations.
To assess whether the PBM binding to the PDZ domain releases the catalytic inhibition as observed for PTPN4 ([Maisonneuve et al., 2014]), we added the PBM peptides of the PTPN3 cellular partners, PBM-TACE and PBM-p38γ, and the viral peptides PBM-16E6, PBM-HBc, in large excess ([…]) to PTPN3-Bidomain (Figure 7A; Table 3). For all peptides, a 2-fold decrease in kcat compared to PTPN3-linker-PTP is measured, as in the unbound Bidomain, while the KM remained unaffected (Table 3). Thus, we concluded that the PBM binding has no effect on PTPN3 catalytic activity in our conditions. Accordingly, the specificity constants (kcat/KM) of the complexed Bidomain are in the same range in comparison with the values of PTPN3-Bidomain (Table 3).

In assay [8] the test system is library of human PDZ domains (266 PDZ domains, 97% of the human PDZome). In words: Holdup assay, PDZome-binding profile. The following applies: holdup against human PDZome; about 10% of the PDZome. The method, then: (§2) The holdup assay was conducted against the biotinylated peptide PBM-p38γ (Supplementary Material S1) following previously established protocols ([Vincentelli et al., 2015]; [Duhoo et al., 2019]) with some slight modifications. In summary, we utilized a high-throughput technique to measure the affinities and specificities of motifs in a library of human PDZ domains, which involved the use of both robotic and microfluidic methodologies. To achieve this, we expressed 266 PDZ domains fused with the Maltose Binding Protein (MBP) tag, which constituted 97% of the human PDZome. Bacterial extracts containing overexpressed PDZ domains were incubated with PBM peptide-coated resins in 96-well plates, then filtered and evaluated using microfluidic capillary electrophoresis to determine binding intensities (BIs) in the flowthroughs. […]
(§3) Then, we investigated the specificity profiles of the PBMs of the PTPN3-PDZ ligands p38γ and of HBc against the full human PDZome (library that contains all the known human PDZ domains) ([Duhoo et al., 2019]). […] 12-mer peptides encompassing the protein C-terminal PBM sequences linked to a biotinyl group are used as baits to quantify the interaction between PBMs and the library of human PDZ domains expressed in Escherichia coli ([Duhoo et al., 2019]). […]

Assay [9] has as its system PTPN4-PDZ. In words: Holdup assay (binding intensity), PTPN4-PDZ. Also noted: species or system human. The following applies: biotinylated 12-mer peptide on resin, MBP-PDZ bacterial extract, capillary electrophoresis, mean BI, significance threshold 0.2. The method, then: as §2, §3
Assay [10] addresses T1, PTPN3-PDZ. In words: Holdup assay (binding intensity), PTPN3-PDZ. The following applies: biotinylated 12-mer peptide on resin, MBP-PDZ bacterial extract, capillary electrophoresis, mean BI, significance threshold 0.2. As to the method:
as §2, §3

In assay [11] the target is PTPN3 PDZ domain (PTPN3-PDZ) (human, UniProt P26045-1 510-582, Limits taken from the PDB 6HKS/8OEP/8CQY entity (offset 483, N-terminal GAMGS tag remnant left out); the end at 597 agrees with the printed linker start at 598. 15N-labelled for NMR.). In words: NMR titration; 1H,15N HSQC chemical shift perturbations of 15N-labelled PTPN3-PDZ (117 μM); PBM-TACE added stepwise, PDZ:peptide 1:0 to 1:8.5, 11 points; 15°C; 50 mM Tris/HCl pH 7.5, 150 mM NaCl, 0.5 mM TCEP, 5% D2O; 1:1 model, 14 peaks. The following applies: both partners purified.

Where two headings read alike, the source gives them in different places.

Sequence of HPV16 E6 PBM (Human papillomavirus type 16) (P03126 whole entry, looked up): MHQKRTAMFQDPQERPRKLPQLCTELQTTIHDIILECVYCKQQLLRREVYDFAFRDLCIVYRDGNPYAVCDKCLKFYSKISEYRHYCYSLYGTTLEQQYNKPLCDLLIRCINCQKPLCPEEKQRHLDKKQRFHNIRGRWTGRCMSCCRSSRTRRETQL
Sequence of HPV18 E6 PBM (Human papillomavirus type 18) (P06463 whole entry, looked up): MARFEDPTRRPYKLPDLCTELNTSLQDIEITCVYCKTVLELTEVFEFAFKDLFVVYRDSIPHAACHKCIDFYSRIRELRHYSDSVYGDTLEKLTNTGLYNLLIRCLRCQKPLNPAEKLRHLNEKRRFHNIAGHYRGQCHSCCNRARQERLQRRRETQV

Regarding PTPN3 PDZ (from UniProt P26045), the Kd in assay [1] was 29 µM; in assay [2] it was 53 µM; in [3] it was 37 µM; in the assay with p38γ PBM (Homo sapiens) it was 26 µM.
In turn, “PTPN3-PDZ of the holdup PDZome library (MBP fusion) (from UniProt P26045-1 510-582) (domain or fragment)” returned a binding intensity (BI) in [4] of 0.52.
With RRRRSQS R E S Q C [PBM-HBc], the entries for the “binding intensity (BI)” value with PTPN4-PDZ [5] and at PTPN3-PDZ [7] were 0.58 and 0.45, respectively. Also, the “number of PDZ domains identified as significant binders” value in assay [6] is given as 28 PDZ domains. The Km on PTPN3-Bidomain was 1300 ± 100 µM. Further, on PTPN3-Bidomain, the “k cat of pNPP hydrolysis” value is 1.6 ± 0.1 s^-1.
Consider RSSRTR R E T Q L [PBM-16E6], for which, at PTPN3-Bidomain, the Michaelis constant (Km) turned out to be 800 ± 100 µM and the “k cat of pNPP hydrolysis” value turned out to be 1.5 ± 0.1 s^-1.
In the case of WARVS K E T P L [PBM-p38γ], the “number of PDZ domains with significant binding (BI greater than 0.2)” value in [8] is 28 PDZ domains. Besides, the “binding intensity (BI)” value in the assay on PTPN4-PDZ [9] was determined as 0.60. The “binding intensity (BI)” value at PTPN3-PDZ [10] is 0.52. Besides, on PTPN3-Bidomain, the Michaelis constant (Km) was 1200 ± 300 µM and the “k cat of pNPP hydrolysis” value amounted to 1.7 ± 0.2 s^-1.

B1: PTPN4-PDZ of the holdup PDZome library (MBP fusion) (domain or fragment)
chain: LIRMKPDENGRFGFNVKGGYDQKMPVIVSRVAPGTPADLCVPRLNEGDQVVLINGRDIAEHTHDQVVLFIKAS
As for B1, the binding intensity (BI) in [4] was determined as 0.6.

B2: PBM-TACE peptide (last C-terminal 12 residues of TACE) (peptide)
peptide: RQNRVDSKETEC
notes: last C-terminal 12 residues of TACE (tumor necrosis factor alpha-convertase, ADAM17), encompassing the PBM; also called PBM of the tumor necrosis factor-alpha converting enzyme; source: synthetic peptide (solid phase, Fmoc; Proteogenix)
For B2, the Kd in [11] was determined as 30 µM.
